In PMC12406204 (Journal of Medicinal Chemistry, 2025):

Columns and labels:
[1] = Cytotoxicity on THP1 monocytes and macrophages; type: cell-based; conditions: human, 100 nM, basal and LPS-stimulated conditions, read-out: cell viability (cytotoxicity)
Source text: These findings collectively highlight the anti-inflammatory properties of the selected CB2R agonists. […] The cytokine modulation profiles observed (Figure ) support the hypothesis that these ligands promote a shift toward an anti-inflammatory immune response, reducing the detrimental effects of chronic inflammation. This makes them promising candidates for the development of new therapies addressing severe inflammatory conditions, such as systemic infections, sepsis, neuroinflammation, and certain types of cancer or scenarios where conventional anti-inflammatory treatments are insufficient. Moreover, the selective targeting of CB2R without activating CB1R ensures a favorable safety profile, minimizing the risk of psychoactive side effects, and positioning these ligands as promising candidates for neurodegenerative and oncological therapies. To ensure the safety and viability of our tested compounds, we evaluated their cytotoxic effects on monocytes and macrophages under the same conditions as those used for assessing anti-inflammatory activity (Figure ). Each compound was tested at a concentration of 100 nM.
Supplementary Figure S5. Cytotoxicity assessment of lead compounds (16i, 16j, 18e, 18f, 18o, and 18p) on THP1 monocytes and macrophages (n = 3). Cells were treated with each compound at 100 nM under both basal and LPS - stimulated conditions. The viability was compared to controls, including HU308 and SR144528. […]
cytotoxic effects, with cell viability remaining close to 100% across all conditions. Error bars represent standard deviation.
(1 picture or pasted object on this page, not shown here)

CB1R = CB1R (Homo sapiens, UniProt P21554); assay: CB1R radioligand binding competition ([3H]CP55,940); design: host or cells: CHO-CB1 C3 cell line; conditions: for CB1R % at 1 μM: percentage displacement of specific [3H]CP 55,940 binding at 1 μM, n = 2
Chain of CB1R (P21554 whole entry): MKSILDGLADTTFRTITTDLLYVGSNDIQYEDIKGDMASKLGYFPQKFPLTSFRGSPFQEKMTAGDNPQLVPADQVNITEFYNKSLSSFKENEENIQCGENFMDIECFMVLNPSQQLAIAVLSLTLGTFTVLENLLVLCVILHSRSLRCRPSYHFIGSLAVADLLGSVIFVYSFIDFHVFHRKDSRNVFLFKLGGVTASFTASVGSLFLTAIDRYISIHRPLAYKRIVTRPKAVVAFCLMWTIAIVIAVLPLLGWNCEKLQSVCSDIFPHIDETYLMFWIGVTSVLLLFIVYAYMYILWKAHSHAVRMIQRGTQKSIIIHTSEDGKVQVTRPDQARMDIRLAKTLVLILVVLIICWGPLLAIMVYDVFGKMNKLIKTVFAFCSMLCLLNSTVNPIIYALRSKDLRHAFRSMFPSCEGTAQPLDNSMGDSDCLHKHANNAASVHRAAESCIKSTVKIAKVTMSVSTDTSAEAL

CB2R = CB2R (Homo sapiens, UniProt P34972); assay: CB2R cAMP determination after forskolin stimulation in transfected HEK-293T cells; type: cell-based; design: expressed in transfected cells; host or cells: HEK-293T, transient transfection (PEI); conditions: for Emax: HEK-293T, normalized to maximal efficacious concentration of CP 55,940, read-out: CB2R Emax AMPc (converted); for EC50: transfected HEK-293T cells, forskolin-stimulated cAMP, read-out: CB2R EC50 AMPc
Chain of CB2R (P34972 whole entry): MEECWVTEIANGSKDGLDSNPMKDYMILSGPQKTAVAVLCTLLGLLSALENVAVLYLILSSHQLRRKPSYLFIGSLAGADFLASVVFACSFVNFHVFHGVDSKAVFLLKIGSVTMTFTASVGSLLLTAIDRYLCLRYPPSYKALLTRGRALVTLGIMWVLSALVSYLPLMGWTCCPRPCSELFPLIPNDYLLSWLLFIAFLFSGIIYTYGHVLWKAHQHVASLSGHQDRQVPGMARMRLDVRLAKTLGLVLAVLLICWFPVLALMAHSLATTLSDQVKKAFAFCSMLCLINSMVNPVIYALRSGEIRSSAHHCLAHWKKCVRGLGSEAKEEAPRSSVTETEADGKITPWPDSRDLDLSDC
Description: Initially we tested their ability to modify CB2R-mediated cAMP accumulation, providing insights into their functional behavior as either agonists or antagonists (Table ). Moreover, the signaling profiles of selected ligands were investigated through their impact on β-arrestin recruitment and Mitogen-Activated Protein Kinase (MAPK) phosphorylation pathway, enabling a more comprehensive evaluation of their intracellular signaling profiles (Table ).
HEK-293T cells were grown in Dulbecco’s Modified Eagle’s Medium (DMEM) medium (Gibco, Paisley, Scotland, United Kingdom) supplemented with 2 mM L-glutamine, 100 U/mL penicillin/streptomycin, MEM Non-Essential Amino Acids Solution (1/100) and 5% (v/v) heat inactivated Fetal Bovine Serum (FBS) (Invitrogen, Paisley, Scotland, United Kingdom). Cells were maintained in a humid atmosphere of 5% CO2 at 37 °C. Cells were transiently transfected with the PEI (Polyethylenimine, Sigma, St. Louis, MO, United States) method as previously described and used for functional assays 48 h later.
Signaling experiments have been performed as previously described. Two hours before initiating the experiment, HEK-293T cell-culture medium was replaced by serum-starved DMEM medium. Then, cells were detached, resuspended in growing medium containing […] zardaverine (Tocris, Bristol, U.K.) and placed in 384-well microplates (2500 cells/well). Cells were pretreated (15 min) with cannabinoid compounds (1 nM to 100 μM) -or vehicle- before adding […] forskolin (Tocris, Bristol, U.K.) to induce cAMP accumulation. Readings were performed after 15 min incubation at 25 °C. Homogeneous Time Resolved Fluorescence (HTRF) energy transfer measures were performed using the Lance Ultra cAMP kit (PerkinElmer, Waltham, MA, United States). Fluorescence at 665 nm was analyzed in a PHERA star Flagship microplate reader equipped with an HTRF optical module (BMG Lab Technologies, Offenburg, Germany).

[2] = Drug transport (BBB permeability) in Caco-2 monolayer; type: in vitro ADME; conditions: human; for efflux ratio at 120 min: Caco-2, bidirectional permeability ratio, read-out: P app (BA/AB); for Papp A→B at 120 min / Papp B→A at 120 min: Caco-2 monolayer, 1 × 10^–4 M
Description: (§1) To validate the early predictions from the CNS-MPO and BOILED-egg models (Figure ), we experimentally assessed the BBB permeability and P-gp interaction of the selected CB2R agonists. For these studies, two pairs of amide enantiomers (18p and 18o, 18e, and 18f) were selected, and the evaluations were conducted using established protocols previously published by our group. Key parameters measured included the permeability coefficients (P appBA and P appAB), the bidirectional permeability ratio (BA/AB), and the degree of interaction with P-gP, as detailed in Table .
Caco-2 cells were grown in Dulbecco’s high-glucose modified eagle medium, composed of 10% fetal bovine serum, 2 mM of glutamine, 100 U/mL of penicillin, and 0.1 mg/mL of streptomycin (all components purchased from Corning, Milan, Italy) in a humidified incubator at 37 °C with a 5% CO2 atmosphere. The experiment started with the preparation of the Caco-2 monolayer, which occurred by seeding the cells (20,000/well) in Millicell plates (Millipore, Milan, Italy). Its growth was followed for 21 days by changing the medium occasionally and measuring its transepithelial electrical resistance (TEER) daily using an epithelial voltohmmeter (Millicell-ERS) until a TEER value >240 ohms × cm^2 was reached. After 21 days, the plate was washed twice with Hank’s balanced salt solution (HBSS) (Invitrogen). After the second wash, the wells were filled with buffer, and the plate was kept at 37 °C for 30 min. After the incubation time, the HBSS buffer was replaced with the solutions of the compounds to be tested at a concentration of 1 × 10^–4 M. The plates were placed in an incubator at 37 °C for 120 min. The apparent permeability (P app), in units of nm s^–1, was calculated as previously reported. ,

P-glycoprotein (P-gp) = P-glycoprotein (P-gp) (Homo sapiens, UniProt P08183); assay: P-gp interaction, Calcein-AM experiment; type: cell-based; conditions: for EC50: Calcein-AM; for P-gp interaction % at 100 μM: inhibition at 100 μM
Chain of P-glycoprotein (P-gp) (P08183 whole entry): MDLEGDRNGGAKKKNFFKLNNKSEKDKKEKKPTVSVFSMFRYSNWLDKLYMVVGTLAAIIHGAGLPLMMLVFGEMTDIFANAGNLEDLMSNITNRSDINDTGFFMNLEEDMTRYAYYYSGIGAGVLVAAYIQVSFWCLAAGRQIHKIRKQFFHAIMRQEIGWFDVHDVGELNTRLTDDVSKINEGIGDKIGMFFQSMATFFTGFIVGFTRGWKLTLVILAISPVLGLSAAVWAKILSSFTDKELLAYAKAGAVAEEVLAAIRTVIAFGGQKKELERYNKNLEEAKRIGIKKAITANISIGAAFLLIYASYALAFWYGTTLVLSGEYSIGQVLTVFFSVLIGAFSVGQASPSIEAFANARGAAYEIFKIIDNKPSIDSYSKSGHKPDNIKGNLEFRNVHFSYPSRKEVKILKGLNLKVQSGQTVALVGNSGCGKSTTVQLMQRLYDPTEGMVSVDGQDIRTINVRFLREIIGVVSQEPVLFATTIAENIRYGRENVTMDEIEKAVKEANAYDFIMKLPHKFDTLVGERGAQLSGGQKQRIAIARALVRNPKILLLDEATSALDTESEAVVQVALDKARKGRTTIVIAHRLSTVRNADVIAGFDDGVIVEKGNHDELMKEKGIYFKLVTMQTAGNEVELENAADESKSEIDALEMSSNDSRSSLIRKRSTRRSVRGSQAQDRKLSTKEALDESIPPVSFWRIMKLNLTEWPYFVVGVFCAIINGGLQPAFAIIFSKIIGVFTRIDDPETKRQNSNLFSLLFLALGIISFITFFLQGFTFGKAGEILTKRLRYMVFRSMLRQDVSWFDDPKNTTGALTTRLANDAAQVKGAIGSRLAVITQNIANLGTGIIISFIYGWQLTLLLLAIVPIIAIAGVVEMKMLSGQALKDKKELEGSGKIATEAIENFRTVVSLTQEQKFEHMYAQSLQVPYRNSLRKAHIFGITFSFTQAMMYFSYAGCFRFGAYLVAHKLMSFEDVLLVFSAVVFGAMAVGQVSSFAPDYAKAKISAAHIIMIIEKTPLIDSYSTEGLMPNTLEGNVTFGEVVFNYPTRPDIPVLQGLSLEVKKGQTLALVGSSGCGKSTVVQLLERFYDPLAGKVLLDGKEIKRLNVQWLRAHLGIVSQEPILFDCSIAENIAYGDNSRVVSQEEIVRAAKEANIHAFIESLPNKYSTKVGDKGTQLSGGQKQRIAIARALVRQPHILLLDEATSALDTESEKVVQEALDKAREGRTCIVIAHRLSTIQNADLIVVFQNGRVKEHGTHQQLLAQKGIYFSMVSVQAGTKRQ
Description: as §1
This experiment was carried out as described by Contino et al. with minor modifications. Each cell line (30,000 cells per well) was seeded into black CulturePlate 96/wells plate with 100 μL medium and allowed to become confluent overnight. 100 μL of test compounds were solubilized in culture medium and added to monolayers, with final concentrations ranging from 0.1 to 100 μM. 96/Wells plate was incubated at 37 °C for 30 min. Calcein-AM was added in 100 μL of Phosphate Buffered Saline (PBS) to yield a final concentration of 2.5 μM and plate was incubated for 30 min. Each well was washed 3 times with ice cold PBS. Saline buffer was added to each well and the plate was read with Victor3 (PerkinElmer) at excitation and emission wavelengths of 485 and 535 nm, respectively. In these experimental conditions Calcein cell accumulation in the absence and in the presence of tested compounds was evaluated and fluorescence basal level was estimated with untreated cells. In treated wells the increase of fluorescence with respect to basal level was measured. EC50 values were determined by fitting the fluorescence increase percentage versus log[dose].

| Structure (SMILES) | viability at 0.1 µM [1] [%] | Ki (CB1R; displacement of [3H]CP 55,940, membranes of CHO-CB1 C3 cells, n = 3) [nM] | Emax (CB2R) [%] | EC50 (CB2R) [nM] | efflux ratio at 120 min [2] | Papp A→B at 120 min [2] [×10⁻⁶ cm/s] | Papp B→A at 120 min [2] [×10⁻⁶ cm/s] | EC50 (P-glycoprotein (P-gp)) [nM] | CB1R % at 1 μM (CB1R) [%] | P-gp interaction % at 100 μM (P-glycoprotein (P-gp)) [%] | inhibition at 30 min, 1 μM (P-glycoprotein (P-gp); probe Calcein-AM (2.5 μM), at 1 μM as printed in text) [%] |
| --- | --- | --- | --- | --- | --- | --- | --- | --- | --- | --- | --- |
| CCCCCn1nc(C(=O)N2CCCC[C@H]2C(=O)OC)c2ccccc21 [16i] | ~100 | 685 ± 21 | 64 | 0.03 ± 0.01 | – | – | – | – | – | – | – |
| NC(=O)[C@H]1CCCCN1C(=O)c1nn(Cc2ccc(F)cc2)c2ccccc12 [18p] | ~100 | – | 58 | 6.8 ± 0.3 | 0.35 | 63.2 | 21.9 | 56900 | 2 | – | – |
| CCCCCn1nc(C(=O)N2CCCC[C@@H]2C(=O)OC)c2ccccc21 [16j] | ~100 | – | 53 | 0.09 ± 0.01 | – | – | – | – | 3 | – | – |
| NC(=O)[C@H]1CCCCN1C(=O)c1cn(CC2CCCCC2)c2ccccc12 [18f] | ~100 | – | 55 | 118 ± 4 | 0.49 | 79.2 | 39.3 | 61800 | 11 | – | – |
| NC(=O)[C@@H]1CCCCN1C(=O)c1cn(CC2CCCCC2)c2ccccc12 [18e] | ~100 | – | 82 | 1701 ± 12 | 0.51 | 99.5 | 50.6 | – | 19 | 30 | 30 |
| NC(=O)[C@@H]1CCCCN1C(=O)c1nn(Cc2ccc(F)cc2)c2ccccc12 [18o] | ~100 | – | 60 | 0.6 ± 0.09 | 0.39 | 72.7 | 29 | – | – | 49 | – |
